The record followed here is US7629318B2, “Immunosuppressant compounds, methods and uses related thereto” (priority 2002, dated 2009).

“And” between values parts separate entries of the source, which are not always exact repeats. Equal values may be shown once. Numbered stars: 1 amine (or outer) side, 2 acyl side, 3 side chain; on linkers, the order of the positions; unused ones are H or OH. Square brackets hold non-standard residues; d marks the D form. Peptide text beside a SMILES is read from it. X1 = CC(C)c1oc([C@H](CO)N[*:1])nc1C(=O)[*:2]; Pro(3R-Ph) = O=C(O)[C@H]1NCC[C@@H]1c1ccccc1; Tic = O=C(O)[C@@H]1Cc2ccccc2CN1; Cha = N[C@@H](CC1CCCCC1)C(=O)O

Data set [1] has as its target DR4Dw4 (DRA1*0101 DRB1*0401) (Homo sapiens, UniProt P01903+P01911, A100K/A169T/F76Y/I96L/K127E/L162R/M171V/N62H/P40V/Q125Y/R42H/S133A/S149N/S66Y/V115G/V209L/W38E). Briefly: Competitive binding to MHC-II protein DR4Dw4. A digest of the protocol: (§1)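 Each MHC-II allele incubated with compound 16 hours at room temperature in duplicate; controls lacked compound, or both compound and MHC-II. Complexes captured 2 h at 4 °C, bound biotinylated peptide detected via europium-streptavidin and DELFIA enhancement, time-resolved fluorescence read at ex 340/em 613 (615) nm.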

Data set [2] deals with DR1 (DRA1*0101 DRB1*0101) (Homo sapiens, UniProt P01903+P01911, A100R/D57E/F55L/F60I/F76Y/I96L/L162R/M171V/P40L/Q125E/R42F/V115G/Y59C). Briefly: Competitive binding to MHC-II protein DR1. The following applies: Protein binding IC50 (nM) 0101, 0101. A digest of the protocol:
as §1

The target of data set [3] is DR4Dw14 (DRA1*0101 DRB1*0404) (Homo sapiens, UniProt P01903+P01911, A100R/A169T/F76Y/I96L/K127E/L162R/M171V/N62H/P40V/Q125Y/R42H/S133A/S149N/S66Y/V209L/W38E). Briefly: Competitive binding to MHC-II protein DR4Dw14. The following applies: 0404; read-out: Protein binding IC50 (nM) 0404. A digest of the protocol:
as §1

Data set [4] concerns the target T1, Priess (DR4Dw4: DRA1*0101 DRB1*0401) cells (Homo sapiens, UniProt P01903+P01911, A100K/A169T/F76Y/I96L/K127E/L162R/M171V/N62H/P40V/Q125Y/R42H/S133A/S149N/S66Y/V115G/V209L/W38E).
T1 construct: MHC II Proteins Expressed on PRIESS and LG2 Cells; endogenous in cells; host or cells: Priess cells
Briefly: Competitive binding to MHC II proteins expressed on Priess cells. The class given is cell-based. The procedure:
(§2) For use in the binding assay the cells were re-suspended in medium containing 1% FCS at a density of 2.5×10^6 cells/ml.
(§3) The assay was performed in sterile 96 well polystyrene microtiter plates. A 10 fold dilution series of compounds (16 nM-1615 μM) in 1% FCS was prepared from 5 or 10 mM compound stock solutions in 10% DMSO/water. 50 μl of each compound dilution were added in duplicates to 50 μl of a 16 μM solution of indicator peptide in 1% FCS. Cell binding was initiated by adding 100 μl of 2.5×10^6 cells/ml 1% FCS to each well. Controls were included containing the DMSO concentration present in the solution with the highest compound concentration. The cells were incubated at 37° C., 6% CO2. After 4 hours the cells were washed with 200 μl PBS and lysed in 200 μl lysis buffer (50 mM sodium phosphate, 150 mM sodium chloride, 1% (w/v) NP-40, 25 mM iodoacetamide, 1 mM PMSF, 3.1% protease inhibitor cocktail: 0.32 g/l of Chymostatin, Antipain, Pepstatin A, Soybean trypsin inhibitor and Leupeptin each, pH 7.5) for 10 min.
(§4) After washing with PBS, 190 μl of cell lysate were transferred to the appropriate wells of the capture plate and incubated for 2 h at 4° C. The wells were washed six times with 200 μl/well cooled (4 to 8° C.) of 1×DELFIA wash (Wallac-ADL-GmbH, Freiburg), incubated with 100 μl of cooled Europium-streptavidin conjugate (Wallac-ADL-GmbH, Freiburg; diluted 1/1000 with DELFIA assay buffer) for 30 minutes at 4° C., again washed six times with cooled 1×DELFIA wash and, finally, incubated with 200 μl cooled DELFIA enhancement solution (Wallac-ADL-GmbH, Freiburg) for one hour at room temperature before reading the time-resolved europium fluorescence at λex Eu^3+: 340 nm and λem Eu^3+: 613 (615) nm (Wallac Victor^2 1420 Multilabel Counter, Wallac-ADL-GmbH, Freiburg).

Data set [5] deals with T2, LG2 (DR1: DRA1*0101 DRB1*0101) cells (Homo sapiens, UniProt P01903+P01911, A100R/D57E/F55L/F60I/F76Y/I96L/L162R/M171V/P40L/Q125E/R42F/V115G/Y59C).
T2 construct: MHC II Proteins Expressed on PRIESS and LG2 Cells; endogenous in cells; host or cells: LG2 cells
Nature of the data set: Competitive binding to MHC II proteins expressed on LG2 cells. It counts as cell-based. The following applies: Cell binding IC50 (uM) LG2 (0101), LG2 (0101). The procedure: as §2, §3, §4

Data set [6] concerns T-cell proliferation, lymph node cells of chimeric 0401-IE transgenic mice. The following applies: read-out: Immunsupressive assays DR4-LN (IC50); DR4-LN. As for the experimental part:
The compounds were tested as follows to inhibit the proliferative T cell response of antigen-primed lymph node cells from mice carrying a chimeric mouse-human class II transgene with an RA-associated peptide binding site, and lack murine class II molecules (Muller et al., 1990; Woods et al., 1994; Current Protocols in Immunology, Vol. 2, 7.21; Ito et al., 1996). Here, the immunization takes place in vivo, but the inhibition and readout are ex vivo. […] These mice lack murine MHC class II, and thus, all Th responses are channelled through a single human RA-associated MHC class II molecule (Ito et al. 1996). These transgenic mice represent a model for testing human class II antagonists.
1.5×10^5 cells are incubated in 0.2 ml wells of 96-well tissue culture plates in the presence of ovalbumin (30 μg per well—half-maximal stimulatory concentration) and a dilution series of the compound under test (from around 0.1 to 200 uM) in serum free HL-1 medium containing 2 mM L-glutamine and 0.1 g/l Kanamycin for three days. Antigen specific proliferation is measured by 3H-methyl-thymidine (1 μCi/well) incorporation during the last 16 h of culture (Falcioni et al., 1999). Cells are harvested, and 3H incorporation measured using a scintillation counter (TopCount, Wallac Finland).

In data set [7] the target is Cathepsin B1 (EC 3.4.22.1 from bovine spleen) (Bos taurus, UniProt P07688). The following applies: Cathepsin B, 4 h.
Another data set concerns the target Cathepsin L (Homo sapiens, UniProt P07711).
Data set [8] concerns T-cell proliferation, DR14-LN. The following applies: read-out: Immunsupressive assays DR14-LN (IC50).
Data set [9] relates to T cell activation from 0401(DR4) chimeric MHCII-mice. Nature of the data set: In vivo inhibition of T cell activation by co-immunisation, DR4 mice immunised with HEL. Details: species or system mouse; % Reduction of response to PPD(HEL): concentration or dose not given beside the values. An excerpt: (§5) Mouse strains DR4 and DR14 carry chimeric MHC-II transgenes that encode the N-terminal domains of the respective DR molecules (forming the peptide binding site) and the remaining (2nd extracellular domains, transmembrane and intracytoplasmic domains) of the murine class II molecule I Ed. These strains are deficient of other murine class II, and thus, all helper T cell responses are triggered by peptides presented in the respective human MHC-II binding site. As an initial in vivo test of subject inhibitors designed to bind to DR, DR-transgenic mice were co-immunized with a pre-defined dose of protein antigen and different amounts of the compound antagonist to be tested. In this set-up, both antigen and compound were emulsified together in complete Freund's adjuvant (CFA), and thus, a direct competition between the two components for presentation by DR was tested. Readout of the assay is ex vivo antigen-specific activation of T cells from regional lymph nodes explanted 9 days after co-immunization. In a typical experiment, antigen dose-response was investigated, and the curves from mice immunized with antigen were compared to those from mice co-immunized with antigen+compound. The dose response curves were generated using lymph node cells pooled at equal numbers from 2-3 mice per experimental group. The experimental system also permits assessment of inherent antigenicity of the compound antagonist. This was done by setting up a dose-response study from the same cell pool using different concentrations of the compund under investigation instead of the antigen. As a specificity control, the response to Purified Protein Derivative (PPD), the major protein component of CFA, was tested in the same cell pool.
(§6) All Gpg conataining compounds have significant immunosupressive properties in one or both of the in-vivo models. Gpg-containing compounds also show improved activity or improved specificity over the Arg-containing equivilent. Further, compounds according to Formula I show activity in this assay.
(§7) Compounds of the invention were injected as an Emulsion prepared using CFA (Bacto Adjuvant Complete H37 Ra, Difco, Order-No. 3113-60); proteins 10 mg/ml in PBS, inhibitors 5 μM in 10% DMSO. CFA, PBS, antigen, and inhibitor were placed in the barrel of a 5-ml syringe (total volume not more than 1 mL). The mixture was sonicated at an amplitude less than 40% (30-35%) for two separated 15 s periods. The emulsion should seem to be hard and not liquid at this point. A drop of emulsion placed on the surface of water should not melt. The resulting emulsion was pushed through the needle into a 1 ml syringe with a needle (Gr.18, 26G×1″), and air bubbles were removed. Mice were co-immunized with 50 μg protein and 210 nM compound antagonist in final 100 μl emulsion into the tail base. Antigen+Compound and CFA are mixed 1:1 vol/vol. The best results are obtained using DR 4 mice immunised with HEL and DR 14 mice immunized with OVA.
(§8) Mice were injected at the tail-base as follows: Holding the tail of a mouse with thumb and middle finger, the index finger was placed under the base of the mouse's tail. The needle of the syringe was inserted about 1.5 cm from the tail base (hairy end) under the skin and pushed about 1 cm into the tail. 100 μl emulsion was injected into the mouse. After 9 days, mice were killed and lymph nodes removed.
(§9) The inhibitory effect of the candidate compounds on T-cell activation was tested using T-cells and antigen-presenting cells isolated from the lymph nodes of chimeric DR4-IE transgenic mice (Taconic, USA) previously co-immunized with hen egg lysozyme plus compound, or DR14-IE transgenic mice co-immunized with ovalbumin plus compound according to standard procedures (Adorini et al., 1988, Mueller et al., 1990; Current Protocols in Immunology, Vol. 2, 7.21; Ito et al., 1996). […]

The test system of data set [10] is T cell activation from 0404(DR14) chimeric MHCII-mice. Nature of the data set: In vivo inhibition of T cell activation by co-immunisation, DR14 mice immunised with OVA. The arrangement: species or system mouse; % Reduction of response to PPD(OVA): concentration or dose not given beside the values.
Source text: as §5, §6, §7, §8, §9

For the compound `CSCC[C@H](NC(=O)[C@@H]1Cc2ccccc2CN1C(=O)[C@H](CCCNC(=N)N)NC(=O)[C@H](CC1CCCCC1)NC(C)=O)C(=O)N1CC[C@H](c2ccccc2)[C@H]1C(=O)N[C@@H](CO)c1nc(C(=O)N(C)C)c(C(C)C)o1` [Compound P33, Ac-Cha-Arg-Tic-Met-βPhPro-[S(oxaz)L]-NMe2] (Ac-[Cha]R[Tic]M[Pro(3R-Ph)][X1]-NMe2), the IC50 in [1] turned out to be 0.3 µM; in data set [2] it was 190 nM; in data set [3] it was 220 nM; in data set [4], 3.2 µM; in data set [5] it was 4.6 µM; in [6], 40 µM. The IC50 in data set [8] was determined as 32 µM. For the same compound, the “Stability (Arbitrary units) Cath B 4 h” value in data set [7] is 97 Arbitrary units and 98 Arbitrary units. For the same compound, the “Stability (Arbitrary units) Cath L 4 h” value on Cathepsin L is 107 Arbitrary units.
Turning to “Ac-Cha-Gpg-Disc-Nle-βPhPro-[S(oxaz)L]-NMe2 [Compound P61-1]”, the “% Reduction of response to HEL” value in [9] (DR4 mice co-immunised with HEL plus compound, mean % inhibition from the control over 3 concentrations of antigen (6.7, 20 and 60 ug)) turned out to be 37.9%. For the same compound, the “% Reduction of response to PPD(HEL)” value in [9] (specificity control: response to PPD in the same cell pool, HEL co-immunised mice) is given as 32.3%. Moreover, in data set [10] (DR14 mice co-immunised with OVA plus compound, mean % inhibition from the control over 3 concentrations of antigen (6.7, 20 and 60 ug)), the “% Reduction of response to OVA” value was 3.7%. For the same compound, the “% Reduction of response to PPD(OVA)” value in [10] (specificity control: response to PPD in the same cell pool, OVA co-immunised mice) was found to be 29.9%.
